This note sets out measurements from patent US8822449B2, “Substituted aminoindanes and analogs thereof, and the pharmaceutical use thereof” (Sanofi, priority 2008, dated 2014).

Where two headings read alike, the source gives them in different places. Some results are limits rather than exact numbers.

This test has as its target T1, sodium-proton exchanger of subtype 3 (NHE3) (Homo sapiens, UniProt P48764).
T1 construct: expressed in transfected cells
T1 sequence (P48764 26-834): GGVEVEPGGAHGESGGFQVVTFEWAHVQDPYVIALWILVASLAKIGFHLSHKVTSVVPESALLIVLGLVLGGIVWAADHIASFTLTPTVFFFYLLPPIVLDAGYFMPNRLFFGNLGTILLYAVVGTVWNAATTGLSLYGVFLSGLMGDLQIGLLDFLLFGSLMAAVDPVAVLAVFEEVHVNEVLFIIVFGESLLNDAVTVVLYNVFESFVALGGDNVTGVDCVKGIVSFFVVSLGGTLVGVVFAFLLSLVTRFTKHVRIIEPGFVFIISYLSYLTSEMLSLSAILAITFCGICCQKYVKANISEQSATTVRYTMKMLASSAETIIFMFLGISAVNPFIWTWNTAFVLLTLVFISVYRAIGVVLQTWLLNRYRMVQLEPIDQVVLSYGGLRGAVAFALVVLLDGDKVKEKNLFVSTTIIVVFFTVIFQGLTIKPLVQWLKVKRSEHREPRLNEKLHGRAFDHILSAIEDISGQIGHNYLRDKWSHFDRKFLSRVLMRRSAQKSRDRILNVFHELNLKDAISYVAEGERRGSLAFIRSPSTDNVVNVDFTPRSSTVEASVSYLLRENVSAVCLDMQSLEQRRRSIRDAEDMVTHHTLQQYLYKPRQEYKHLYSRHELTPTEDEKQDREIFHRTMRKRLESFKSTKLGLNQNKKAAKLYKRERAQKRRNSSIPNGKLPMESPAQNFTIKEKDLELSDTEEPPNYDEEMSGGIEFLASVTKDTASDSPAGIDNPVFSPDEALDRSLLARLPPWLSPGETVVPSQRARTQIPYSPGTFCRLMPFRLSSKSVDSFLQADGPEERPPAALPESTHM
The experiment in a line: Recovery of intracellular pH (pHi) after acidification in LAP1 cells stably expressing NHE3 (BCECF fluorescence, FLIPR). Format: cell-based. The conditions noted are these: LAP1 cells stably expressing NHE3, pH recovery after acidification, range 1 is % inhibition at 10 μM.

The mark [1] stands for this setting: read-out: Activity range (inhibitory effect on NHE3).

Consider `CC(=O)Nc1cccc(O[C@@H]2c3ccccc3C[C@H]2N2CCC(CN)CC2)c1` (racemic) [Example 688, N-{3-[rac-trans-(1,2)-2-(4-aminomethylpiperidin-1-yl)indan-1-yloxy]phenyl}acetamide], for which the IC50 under setting [1] is 1 to 10 µM.
For `Cc1nnc(C)n1-c1ccc(O[C@H]2c3c(Cl)sc(Cl)c3CC[C@@H]2N2CCCC2)cc1` (racemic) [Example 496, 4-[4-(1,3-dichloro-5-pyrrolidin-1-yl-4,5,6,7-tetrahydrobenzo[c]thiophen-4-yloxy)phenyl]-3,5-dimethyl-4H-[1,2,4]triazole], the IC50 under setting [1] is 1 to 10 µM.
On the same count and under the same terms, to `CS(=O)(=O)c1ccc(O[C@@H]2c3ccccc3C[C@H]2NC2CCC2)cc1` (racemic) [Example 708, Cyclobutyl-[rac-trans-(1,2)-1-(4-methanesulfonyl-phenoxy)-indan-2-yl]-amine] belongs 1 to 10 µM.
As to `NC(=O)c1cc(Cl)ccc1O[C@H]1c2cc(Cl)cc(Cl)c2C[C@@H]1N1CCC1` [Example 353, 2-((1S,2S)-2-azetidin-1-yl-4,6-dichloroindan-1-yloxy)-5-chlorobenzamide], under setting [1], the inhibition at 10 µM was in the range of 20 to 50%.
As to `Cc1nnc(C)n1-c1ccc(O[C@H]2c3ccccc3C[C@@H]2N2CCCC2)c(Cl)c1` [Example 491, 4-[3-chloro-4-(trans-(1S,2S)-2-pyrrolidin-1-ylindan-1-yloxy)phenyl]-3,5-dimethyl-4H-[1,2,4]triazole], the IC50 under setting [1] is below 1 µM.
On the same count and under the same terms, to `CS(=O)(=O)c1ccc(O[C@H]2c3ccccc3C[C@@H]2N2CCC[C@@H](N)C2)cc1` [Example 95, (R)-1-[trans-(1S,2S)-1-(4-methanesulfonylphenoxy)indan-2-yl]piperidin-3-ylamine] belongs below 1 µM.
The same measure, in the same setting: to `O=C1CCCN1c1ccc(O[C@H]2c3cc(Cl)cc(Cl)c3C[C@@H]2N2CC[C@@H](O)C2)cc1` [Example 333, 1-{4-[trans-(1S,2S)-4,6-dichloro-2-((R)-3-hydroxypyrrolidin-1-yl)indan-1-yloxy]phenyl}pyrrolidin-2-one] belongs below 1 µM; to `c1ccc2c(c1)C[C@@H](N1C[C@H]3CNC[C@H]3C1)[C@@H]2Oc1ccc(-n2ccnc2)cc1` (racemic) [Example 7, 2-[rac-trans-(1,2)-1-(4-imidazol-1-ylphenoxy)indan-2-yl]octahydropyrrolo[3,4-c]pyrrole], 1 to 10 µM.
With `CS(=O)(=O)c1ccc(O[C@H]2c3cc(Cl)c(Cl)cc3C[C@@H]2N2CCCNCC2)cc1` (racemic) [Example 286, 1-[rac-trans-(1,2)-5,6-dichloro-1-(4-methanesulfonylphenoxy)indan-2-yl]-[1,4]diazepane], the IC50 under setting [1] lay within 1 to 10 µM.
As for `N[C@H]1CCCN([C@H]2CCc3ccccc3[C@@H]2Oc2ccccc2OC(F)(F)F)C1` (racemic) [Example 159, (S)-1-[rac-trans-(1,2)-1-(2-trifluoromethoxyphenoxy)-1,2,3,4-tetrahydronaphthalen-2-yl]piperidin-3-ylamine], the inhibition at 10 µM under setting [1] was 20 to 50%.
Regarding `COc1cc(Cl)cc(O[C@@H]2c3ccccc3C[C@H]2N2CCC[C@H](N)C2)c1` (racemic) [Example 164, (S)-1-[rac-trans-(1,2)-1-(3-chloro-5-methoxyphenoxy)indan-2-yl]piperidin-3-ylamine], under setting [1], the IC50 was in the range of 1 to 10 µM.
`CS(=O)(=O)c1ccc(O[C@H]2c3ccccc3CC[C@@H]2N2CCOCC2)cc1` (racemic) [Example 508, 4-[rac-trans-(1,2)-1-(4-methanesulfonylphenoxy)-1,2,3,4-tetrahydronaphthalen-2-yl]morpholine]: the inhibition at 10 µM under setting [1] was in the range of 20 to 50%.
`N#Cc1cc(Cl)ccc1O[C@@H]1c2ccccc2C[C@H]1N1CCC(CN)CC1` (racemic) [Example 376, 2-[rac-trans-(1,2)-2-(4-aminomethylpiperidin-1-yl)indan-1-yloxy]-5-chlorobenzonitrile]: under setting [1], the IC50 lay within 1 to 10 µM.
Same read-out and setting: to `CS(=O)(=O)c1ccc(O[C@H]2c3ccccc3C[C@@H]2N2CCCC2)c(Cl)c1Cl` (racemic) [Example 263, 1-[rac-trans-(1,2)-1-(2,3-dichloro-4-methanesulfonylphenoxy)indan-2-yl]pyrrolidine] belongs below 1 µM; to `NS(=O)(=O)c1ccc(O[C@H]2c3cc(Cl)cc(Cl)c3C[C@@H]2NC2CCCC2)c(F)c1` [Example 748, 4-(trans-(1S,2S)-4,6-Dichloro-2-cyclopentylamino-indan-1-yloxy)-3-fluoro-benzenesulfonamide], 1 to 10 µM.
On the same count and under the same terms, as for `CN1CCN(c2ccc(O[C@H]3c4cc(Cl)cc(Cl)c4C[C@@H]3N3CC[C@@H](O)C3)c(F)c2)C1=O` [Example 330, 1-{4-[trans-(1S,2S)-4,6-dichloro-2-((R)-3-hydroxypyrrolidin-1-yl)indan-1-yloxy]-3-fluorophenyl}-3-methylimidazolidin-2-one], the figure is below 1 µM.
Same read-out and setting: as for `N#Cc1ccc(O[C@H]2c3ccccc3CC[C@@H]2N2CCC[C@@H](N)C2)c(Cl)c1` (racemic) [Example 514, 4-[rac-trans-(1,2)-2-((R)-3-aminopiperidin-1-yl)-1,2,3,4-tetrahydronaphthalen-1-yloxy]-3-chlorobenzonitrile], the figure is 1 to 10 µM; as for `O=C1CCC(=O)N1c1ccc(Cl)c(O[C@H]2c3cc(Cl)cc(Cl)c3C[C@@H]2N2CC[C@@H](O)C2)c1` [Example 337, 1-{4-chloro-3-[(1S,2S)-4,6-dichloro-2-((R)-3-hydroxypyrrolidin-1-yl)indan-1-yloxy]phenyl}pyrrolidine-2,5-dione], 1 to 10 µM; as for `CCN(CC)[C@@H]1Cc2ccccc2[C@H]1Oc1ccc(S(N)(=O)=O)c(Cl)c1Cl` (racemic) [Example 355, 2,3-dichloro-4-(rac-trans-(1,2)-2-diethylaminoindan-1-yloxy)benzenesulfonamide], 1 to 10 µM.
As to `O=S(=O)(NCCC(F)(F)F)c1ccc(O[C@H]2c3ccccc3C[C@@H]2N2CCCC2)cc1` (racemic) [Example 470, 4-(rac-trans-(1,2)-2-pyrrolidin-1-ylindan-1-yloxy)-N-(3,3,3-trifluoropropyl)benzenesulfonamide], under setting [1], the IC50 is 1 to 10 µM.
Turning to `NS(=O)(=O)c1ccc(O[C@H]2c3ccccc3C[C@@H]2N2CCCCC2)cc1` (racemic) [Example 465, 4-(rac-trans-(1,2)-2-piperidin-1-ylindan-1-yloxy)benzenesulfonamide], the IC50 under setting [1] is below 1 µM.
Turning to `COc1cc(Cl)cc(O[C@@H]2c3ccccc3C[C@H]2N2CCC(CN)C2)c1` (mixture of isomers) [Example 613, C-{1-[rac-trans-(1,2)-1-(3-chloro-5-methoxyphenoxy)indan-2-yl]pyrrolidin-3-yl}methylamine], the IC50 under setting [1] lay in the range of 1 to 10 µM.
Turning to `NS(=O)(=O)c1ccc(O[C@H]2c3ccccc3C[C@@H]2CN2CCCC2)cc1Cl` (racemic) [Example 389, 2-chloro-4-(2-pyrrolidin-1-ylmethylindan-1-yloxy)benzenesulfonamide], the IC50 under setting [1] lay in the range of 1 to 10 µM.
Same read-out and setting: as for `N[C@@H]1CCCN([C@@H]2Cc3ccccc3[C@H]2Oc2ccc(-n3cncn3)cc2)C1` (racemic) [Example 62, (R)-1-[rac-trans-(1,2)-1-(4-[1,2,4]triazol-1-ylphenoxy)indan-2-yl]piperidin-3-ylamine], the figure is below 1 µM.
Regarding `CCN(CC)C(=O)c1ccc(O[C@H]2c3ccccc3C[C@@H]2N2CCCC2)cc1` (racemic) [Example 633, N,N-diethyl-4-(rac-trans-(1,2)-2-pyrrolidin-1-ylindan-1-yloxy)benzamide], the IC50 (Activity range (inhibitory effect on NHE3)) was 1 to 10 µM.
For the compound `CC(=O)NCc1cccc(O[C@H]2c3ccccc3C[C@@H]2N2CCCC2)c1` (racemic) [Example 640, N-[3-(rac-trans-(1,2)-2-pyrrolidin-1-ylindan-1-yloxy)benzyl]acetamide], under setting [1], the IC50 is below 1 µM.
The same measure, in the same setting: as for `Clc1cc(Cl)c2c(c1)[C@H](Oc1ccc(-n3cncn3)cc1)[C@@H](N1CC3CNCC3C1)C2` (mixture of isomers) [Example 377, 2-[rac-trans-(1,2)-4,6-dichloro-1-(4-[1,2,4]triazol-1-ylphenoxy)indan-2-yl]octahydropyrrolo[3,4-c]pyrrole], the figure is below 1 µM.
For `CC(=O)Nc1cccc(O[C@H]2c3ccccc3C[C@@H]2N2CCSCC2)c1` (racemic) [Example 643, N-[3-(rac-trans-(1,2)-2-thiomorpholin-4-ylindan-1-yloxy)phenyl]acetamide], the inhibition at 10 µM under setting [1] lay within 20 to 50%.
In the case of `N[C@H]1CCCN([C@@H]2Cc3ccccc3[C@H]2Oc2ccc(S(N)(=O)=O)c(Cl)c2Cl)C1` (racemic) [Example 536, 4-[rac-trans-(1,2)-2-((S)-3-aminopiperidin-1-yl)indan-1-yloxy]-2,3-dichlorobenzenesulfonamide], the IC50 under setting [1] was in the range of 1 to 10 µM.
In the case of `Cc1nnc(C)n1-c1ccc(O[C@H]2c3cc(Cl)cc(Cl)c3C[C@@H]2N2CCC[C@@H](O)C2)cc1` [Example 132, (R)-1-{trans-(1S,2S)-4,6-dichloro-1-[4-(3,5-dimethyl-[1,2,4]triazol-4-yl)phenoxy]indan-2-yl}piperidin-3-ol], under setting [1], the IC50 was below 1 µM.
